Data: paper PMC9962302, “The Mechanism of Metal-Containing Formate Dehydrogenases Revisited: The Formation of Bicarbonate as Product Intermediate Provides Evidence for an Oxygen Atom Transfer Mechanism” (Molecules, 2023)

Legend:
[1] = target: T1, R. capsulatus FDH (RcFDH), metal-containing formate dehydrogenase (Rhodobacter capsulatus, UniProt D5AQH0); assay: inhibition of the back reaction (CO2 reduction) at […] CS2, […] nm; format: biochemical
T1 construct: gene fdhA

[2] = target: T1, R. capsulatus FDH (RcFDH), metal-containing formate dehydrogenase; assay: steady-state inhibition kinetics of formate oxidation, benzyl viologen as electron acceptor, […] nm; format: biochemical
purified protein [3] = substrate: O=CO; assay: purified protein; format: biochemical, Rhodobacter capsulatus; conditions: bis-MGD molybdenum cofactor, [4Fe-4S] cluster; NAD+ active site, molybdenum centre
purified protein [4] = substrate: O=CS; assay: purified protein; format: biochemical, Rhodobacter capsulatus; conditions: bis-MGD molybdenum cofactor, [4Fe-4S] cluster; NAD+

T1 sequence (D5AQH1 1-500 partner, one chain of several): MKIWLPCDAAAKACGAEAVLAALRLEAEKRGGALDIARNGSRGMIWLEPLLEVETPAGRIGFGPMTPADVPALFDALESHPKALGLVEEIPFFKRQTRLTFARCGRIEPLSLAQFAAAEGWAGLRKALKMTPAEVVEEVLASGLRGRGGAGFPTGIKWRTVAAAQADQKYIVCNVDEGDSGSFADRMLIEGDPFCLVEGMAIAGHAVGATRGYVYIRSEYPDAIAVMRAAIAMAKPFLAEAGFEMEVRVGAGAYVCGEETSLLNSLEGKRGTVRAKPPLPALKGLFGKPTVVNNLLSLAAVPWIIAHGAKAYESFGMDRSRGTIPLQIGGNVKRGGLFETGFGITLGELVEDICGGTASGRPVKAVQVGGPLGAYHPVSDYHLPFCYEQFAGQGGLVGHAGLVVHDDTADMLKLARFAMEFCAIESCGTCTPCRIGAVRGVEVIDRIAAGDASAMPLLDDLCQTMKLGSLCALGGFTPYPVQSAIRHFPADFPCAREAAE
T1 sequence (D5AQH2 1-150 partner, one chain of several): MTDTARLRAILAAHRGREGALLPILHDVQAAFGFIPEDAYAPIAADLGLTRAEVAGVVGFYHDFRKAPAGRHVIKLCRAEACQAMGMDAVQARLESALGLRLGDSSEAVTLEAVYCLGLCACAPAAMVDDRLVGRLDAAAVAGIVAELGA
T1 sequence (D5AQG8 1-71 partner, one chain of several): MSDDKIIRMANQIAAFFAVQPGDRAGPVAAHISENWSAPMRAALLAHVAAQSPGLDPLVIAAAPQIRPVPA

Question: How did the “inhibition of the back reaction (CO2 reduction) at 150 mM CS2, 340 nm” value [1] turn out when S=C=S [carbon disulfide] was run?
Answer: The value was “interfere with the active site and/or the hydrophobic channel and, therefore, inhibits the reduction in CO2 when present”.

Question: For S=CS [dithioformate], which Ki [2] is on record?
Answer: The Ki was 7.5 mM.

B1: R. capsulatus FDH (RcFDH), metal-containing formate dehydrogenase (Rhodobacter capsulatus SB 1003) (protein)
chain: MKDLIIPPLDWTQDMGTPKREGAPVHLTIDGVEVTVPAGTSVLRAAAEAGISIPKLCATDNVEPVGSCRLCMVEIEGMRGTPTSCTTPVAPGMRVHTQTPQLQKLRRGVMELYISDHPLDCLTCAANGDCELQDMAGAVGLREVRYQAKDTHFARRDATGPNPRYIPKDNSNPYFSYDPAKCIVCMRCVRACEEVQGTFALTVMGRGFDARISPAAPDFLSSDCVSCGACVQACPTATLVEKSVERIGTPERKVVTTCAYCGVGCSFEAHMLGDQLVRMVPWKGGAANRGHSCVKGRFAYGYATHQDRILKPMIRDKITDPWREVNWTEALDFTATRLRALRDSHGADALGVITSSRCTNEETYLVQKLARAVFGTNNTDTCARVCHSPTGYGLKQTFGTSAGTQDFDSVEETDLALVIGANPTDGHPVFASRLRKRLRAGAKLIVVDPRRIDLLNTPHRGEAWHLQLKPGTNVAVMTAMAHVIVTEQIFDKRFIGDRCDWDEWADYAEFVANPEYAPEAVESLTGVPAGLLRQAARAYAAAPNAAIYYGLGVTEHSQGSTTVIAIANLAMMTGNIGRPGVGVNPLRGQNNVQGSCDMGSFPHEFPGYRHVSDDATRGLFERTWGVTLSSEPGLRIPNMLDAAVEGRFKALYVQGEDILQSDPDTRHVSAGLAAMDLVIVHDLFLNETANYAHVFLPGSTFLEKDGTFTNAERRINRVRRVMAPKAGFADWEVTQMLANALGAGWHYTHPSEIMAEIAATTPGFAAVTYEMLDARGSVQWPCNEKAPEGSPIMHVEGFVRGKGRFIRTAYLPTDEKTGPRFPLLLTTGRILSQYNVGAQTRRTENTVWHGEDRLEIHPTDAETRGIRDGDWVRLASRAGETTLRATVTDRVSPGVVYTTFHHPDTQANVVTTDTSDWATNCPEYKVTAVQVAASNGPSDWQQDYAAQAAAARRIEAAE
Question: Which Km (purified protein [3]) does the source give for B1 here?
Answer: The Km was 145 ± 25 µM.

Question: What about the Km (purified protein [4]) of the same molecule?
Answer: The Km was 3300 ± 240 µM.
